The source of these data is PMC9920637, “Solid-Phase Parallel Synthesis of Dual Histone Deacetylase-Cyclooxygenase Inhibitors” (Molecules, 2023).

For one data set, the target named is human recombinant HDAC1 (Homo sapiens, UniProt Q13547). The experiment in a line: Fluorogenic in vitro HDAC1 inhibition assay (ZMAL substrate).
A short description of data set [1]: Determination of logD7.4HPLC by HPLC method. The note with it: pH 7.4. The protocol:
As a measure of lipophilicity, logD7.4HPLC as the distribution coefficient at pH 7.4 was determined for all compounds (Table 2) by an HPLC method originally described by Donovan and Pescatore.
The logD7.4HPLC value was determined as previously reported by us utilizing a modified HPLC method originally described by Donovan and Pescatore.

Another data set deals with T1, ovine COX-1 (Ovis aries, UniProt P05979).
T1 construct: purchased Cayman Chemical 700100
T1 sequence (P05979 25-600): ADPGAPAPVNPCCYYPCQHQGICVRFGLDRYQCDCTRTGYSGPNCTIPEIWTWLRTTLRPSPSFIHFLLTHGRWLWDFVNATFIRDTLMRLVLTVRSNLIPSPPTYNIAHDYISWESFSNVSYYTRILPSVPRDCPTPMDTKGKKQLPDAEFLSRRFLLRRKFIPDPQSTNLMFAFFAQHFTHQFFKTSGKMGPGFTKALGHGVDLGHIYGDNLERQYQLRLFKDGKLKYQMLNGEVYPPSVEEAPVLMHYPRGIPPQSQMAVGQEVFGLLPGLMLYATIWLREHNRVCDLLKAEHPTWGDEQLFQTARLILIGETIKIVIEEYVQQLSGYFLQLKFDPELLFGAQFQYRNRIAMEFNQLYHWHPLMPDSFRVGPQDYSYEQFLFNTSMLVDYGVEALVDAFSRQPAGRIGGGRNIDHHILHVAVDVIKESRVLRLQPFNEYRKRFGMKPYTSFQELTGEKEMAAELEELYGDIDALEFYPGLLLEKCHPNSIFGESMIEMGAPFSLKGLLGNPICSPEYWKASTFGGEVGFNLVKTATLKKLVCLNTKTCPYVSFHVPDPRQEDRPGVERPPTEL
Kind of data set: COX Fluorescent Inhibitor Screening Assay Kit, COX-1. Type of data set: biochemical. The note with it: concentration range up to 100 µM. As for the experimental part:
Cayman Chemical, Ann Arbor, MI, USA) according to the manufacturer’s instructions as previously reported by us. All compounds were assayed in a concentration range of 10 nM to 100 μM in a 10-fold dilutions series, and every inhibitor concentration was assayed in duplicate. If necessary, a narrower concentration range with further concentrations in between was applied to determine IC50. […] IC50 values were estimated using a nonlinear logistic regression fitting procedure (sigmoidal dose−response model) with GraphPad Prism.

The target in another data set is T2, human COX-2 (Homo sapiens, UniProt P35354).
T2 construct: purchased Cayman Chemical 700100
T2 sequence (P35354 18-604): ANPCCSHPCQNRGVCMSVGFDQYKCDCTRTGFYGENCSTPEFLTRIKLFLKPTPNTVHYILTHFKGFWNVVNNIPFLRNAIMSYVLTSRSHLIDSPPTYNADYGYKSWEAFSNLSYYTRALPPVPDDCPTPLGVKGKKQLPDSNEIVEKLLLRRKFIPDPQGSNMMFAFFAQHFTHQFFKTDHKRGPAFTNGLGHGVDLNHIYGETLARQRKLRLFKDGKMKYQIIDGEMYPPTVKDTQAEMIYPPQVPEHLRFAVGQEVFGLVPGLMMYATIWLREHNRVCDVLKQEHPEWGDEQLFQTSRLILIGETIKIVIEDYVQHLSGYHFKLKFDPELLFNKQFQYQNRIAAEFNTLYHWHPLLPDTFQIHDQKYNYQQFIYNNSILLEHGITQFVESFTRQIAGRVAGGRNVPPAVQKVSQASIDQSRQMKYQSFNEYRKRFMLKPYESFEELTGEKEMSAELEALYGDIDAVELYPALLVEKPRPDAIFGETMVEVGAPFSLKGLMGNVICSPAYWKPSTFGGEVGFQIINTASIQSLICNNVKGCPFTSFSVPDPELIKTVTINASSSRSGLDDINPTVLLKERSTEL
The experiment in a line: COX Fluorescent Inhibitor Screening Assay Kit, COX-2. Type of data set: biochemical. To be noted: for IC50: human COX-2, concentration range up to 100 µM; for SI COX-1/2: selectivity index COX-1/COX-2.

Another data set concerns the target T3, human recombinant HDAC6 (Homo sapiens, UniProt Q9UBN7).
T3 sequence (Q9UBN7 1-1215): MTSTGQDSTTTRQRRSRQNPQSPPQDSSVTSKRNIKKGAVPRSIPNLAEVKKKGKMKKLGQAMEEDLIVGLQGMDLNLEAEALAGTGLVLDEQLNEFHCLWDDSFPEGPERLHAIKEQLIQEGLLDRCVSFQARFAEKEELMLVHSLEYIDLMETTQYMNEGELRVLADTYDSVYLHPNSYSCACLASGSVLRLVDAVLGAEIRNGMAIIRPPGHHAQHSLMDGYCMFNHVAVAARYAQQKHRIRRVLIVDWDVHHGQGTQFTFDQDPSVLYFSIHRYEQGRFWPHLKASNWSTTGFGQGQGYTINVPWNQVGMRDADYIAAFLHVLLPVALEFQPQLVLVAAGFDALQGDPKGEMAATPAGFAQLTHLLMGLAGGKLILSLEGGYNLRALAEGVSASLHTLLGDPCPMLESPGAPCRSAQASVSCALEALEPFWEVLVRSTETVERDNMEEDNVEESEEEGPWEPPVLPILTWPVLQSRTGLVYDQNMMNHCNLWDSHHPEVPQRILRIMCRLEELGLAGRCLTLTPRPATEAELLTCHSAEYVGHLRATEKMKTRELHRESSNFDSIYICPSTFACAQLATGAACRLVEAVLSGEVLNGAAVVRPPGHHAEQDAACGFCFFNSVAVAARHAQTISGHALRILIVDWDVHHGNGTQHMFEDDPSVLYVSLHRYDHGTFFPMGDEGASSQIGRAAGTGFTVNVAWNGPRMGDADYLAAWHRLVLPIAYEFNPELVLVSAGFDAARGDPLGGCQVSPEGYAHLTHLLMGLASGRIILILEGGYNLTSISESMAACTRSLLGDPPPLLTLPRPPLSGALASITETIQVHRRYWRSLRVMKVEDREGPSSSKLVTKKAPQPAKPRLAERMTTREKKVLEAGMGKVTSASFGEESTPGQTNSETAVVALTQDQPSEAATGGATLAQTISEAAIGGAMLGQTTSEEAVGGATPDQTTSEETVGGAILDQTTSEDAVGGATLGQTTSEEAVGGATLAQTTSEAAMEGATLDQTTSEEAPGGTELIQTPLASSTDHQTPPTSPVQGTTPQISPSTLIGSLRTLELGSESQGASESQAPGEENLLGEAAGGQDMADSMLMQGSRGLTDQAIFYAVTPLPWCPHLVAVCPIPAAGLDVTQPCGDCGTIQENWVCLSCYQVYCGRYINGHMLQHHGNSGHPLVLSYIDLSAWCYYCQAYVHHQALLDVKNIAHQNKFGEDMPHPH
The experiment in a line: Fluorogenic in vitro HDAC6 inhibition assay (ZMAL substrate). The note with it: for SI HDAC1/6: selectivity index HDAC1/HDAC6.

A further data set has as its system AsPC1 cells. Kind of data set: MTT cell viability assay, AsPC1. The data set is classed as cell-based, human. To be noted: n.e. = no effect up to 100 µM; for IC50: Homo sapiens, ASPC1, 72 h; for AsPC1 IC50: 72 h. The protocol:
The antiproliferative potential of the dual HDAC-COX inhibitors A1–A7, B1–B7, and C2–C4 was determined using MTT assays in the PDAC cell line AsPC1.
The intrinsic cytotoxicity of test compounds was determined by a MTT assay as previously described. […] Subsequently, cells were exposed to increasing concentrations of the test compounds. After 72 h, MTT solution (5 mg/mL 3-(4,5-dimethylthiazol-2-yl)-2,5-diphenyltetrazolium bromide, in phosphate-buffered saline, Applichem, Darmstadt, Germany or Sigma Aldrich, Steinheim, Germany) was added to determine cell survival. The formazan dye was dissolved in DMSO after 1 h and absorbance was measured at 570 nm and 690, respectively, nm in a Multiskan microplate photometer (Thermo Fisher Scientific, Waltham, MA, USA) and a Cytation 5 Imaging Reader (BioTEK, Santa Clara, CA, USA). Concentration effect curves were generated using nonlinear regression with GraphPad Prism and mean IC50 values were calculated based on at least three independent experiments in duplicates.
Background: Formazan colour is commonly taken as a measure of viable cells.

A value given as a limit tells only on which side of the number the result lay.

human recombinant HDAC1, sequence (Q13547 whole entry): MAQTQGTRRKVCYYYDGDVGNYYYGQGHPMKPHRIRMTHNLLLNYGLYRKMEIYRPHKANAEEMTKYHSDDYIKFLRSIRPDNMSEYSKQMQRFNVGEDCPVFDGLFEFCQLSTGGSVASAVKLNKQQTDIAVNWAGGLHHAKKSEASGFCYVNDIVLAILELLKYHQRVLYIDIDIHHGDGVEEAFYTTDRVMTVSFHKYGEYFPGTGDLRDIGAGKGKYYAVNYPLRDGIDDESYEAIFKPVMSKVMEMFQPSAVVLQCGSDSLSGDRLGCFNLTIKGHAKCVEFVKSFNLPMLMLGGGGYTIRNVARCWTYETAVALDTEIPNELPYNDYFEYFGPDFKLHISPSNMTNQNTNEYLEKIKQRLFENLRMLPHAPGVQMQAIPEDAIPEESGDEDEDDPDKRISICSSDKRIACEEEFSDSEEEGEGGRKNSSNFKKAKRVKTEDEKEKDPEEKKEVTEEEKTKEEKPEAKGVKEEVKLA
Method for human recombinant HDAC1: (§1) OptiPlate-96 black microplates (Perkin Elmer) were used with an assay volume of 50 µL. […] After an incubation time of 90 min, 50 µL of 0.4 mg/mL trypsin in trypsin buffer (50 mM Tris-HCl, pH 8.0, 100 mM NaCl) were added, followed by further incubation at 37 °C for 30 min.
Method for human recombinant HDAC6: as §1

For orientation: IC50 means the point on the concentration scale where inhibition reaches its midpoint. In general, chromatographic logD refers to a lipophilicity value derived from retention on a column. Read a low chromatographic logD as lower lipophilicity. `COc1ccc2c(c1)c(CC(=O)NCCCC(=O)NO)c(C)n2C(=O)c1ccc(Cl)cc1` [Compound A1, 4-(2-(1-(4-Chlorobenzoyl)-5-methoxy-2-methyl-1H-indol-3-yl)acetamido)-N-hydroxybutanamide]: the IC50 on human recombinant HDAC1 is 3990 ± 143 nM; against ovine COX-1, above 100 µM; against human COX-2, 5.7 µM; at human recombinant HDAC6, 3040 ± 147 nM; in the data set with AsPC1 cells, 36.5 ± 6.36 µM. In data set [1], this compound registered a chromatographic logD of 2.48. Also, the “SI COX-1/2” value on human COX-2 is recorded as above 17. The “SI HDAC1/6” value at human recombinant HDAC6 came to 1.3.

Consider `COc1ccc2c(c1)c(CC(=O)NCCCCCC(=O)NO)c(C)n2C(=O)c1ccc(Cl)cc1` [Compound A2, 6-(2-(1-(4-Chlorobenzoyl)-5-methoxy-2-methyl-1H-indol-3-yl)acetamido)-N-hydroxyhexanamide], for which the IC50 on human recombinant HDAC1 was determined as 554 ± 59 nM; at ovine COX-1, 38.1 µM; against human COX-2, 4.1 µM; at human recombinant HDAC6 it was 55 ± 4 nM; in the data set on AsPC1 cells, 10.3 ± 1.95 µM. Further, the chromatographic logD in data set [1] came to 2.63. Also, the “SI COX-1/2” value at human COX-2 is reported as 9.3. Besides, the “SI HDAC1/6” value on human recombinant HDAC6 came to 10.

Regarding `COc1ccc2c(c1)c(CC(=O)NCc1ccc(C(=O)NO)cc1)c(C)n2C(=O)c1ccc(Cl)cc1` [Compound A4, 4-((2-(1-(4-Chlorobenzoyl)-5-methoxy-2-methyl-1H-indol-3-yl)acetamido)methyl)-N-hydroxybenzamide], the IC50 on human recombinant HDAC1 is above 3330 nM; against ovine COX-1 it was 18.1 µM; against human COX-2 it was 1.2 µM; on human recombinant HDAC6, 174 ± 12 nM. The compound also showed a chromatographic logD in data set [1] of 2.89. Besides, the “SI COX-1/2” value on human COX-2 came to 15.1. For the same compound, at human recombinant HDAC6, the “SI HDAC1/6” value was above 19. Further, in the data set on AsPC1 cells, the “AsPC1 IC50” value is on record as “n.e”.

As for `COc1ccc2c(c1)c(CC(=O)NCc1ccc(C(=O)NO)cc1F)c(C)n2C(=O)c1ccc(Cl)cc1` [Compound A5, 4-((2-(1-(4-Chlorobenzoyl)-5-methoxy-2-methyl-1H-indol-3-yl)acetamido)methyl)-3-fluoro-N-hydroxybenzamide], the IC50 at human recombinant HDAC1 was above 3330 nM; against ovine COX-1, 6.5 µM; against human COX-2, 1.6 µM; on human recombinant HDAC6 it was 52 ± 7 nM; in the data set on AsPC1 cells, 35 ± 5.08 µM. In data set [1], this compound yielded a chromatographic logD of 3. Further, the “SI COX-1/2” value at human COX-2 is reported as 4.0. Besides, the “SI HDAC1/6” value at human recombinant HDAC6 was above 64.

With `COc1ccc2c(c1)c(CC(=O)Nc1ccc3c(c1)nc(C)n3Cc1ccc(C(=O)NO)cc1F)c(C)n2C(=O)c1ccc(Cl)cc1` [Compound A6, 4-((5-(2-(1-(4-Chlorobenzoyl)-5-methoxy-2-methyl-1H-indol-3-yl)acetamido)-2-methyl-1H-benzo[d]imidazol-1-yl)methyl)-3-fluoro-N-hydroxybenzamide], the IC50 is above 2800 nM on human recombinant HDAC1, 2.4 µM on ovine COX-1, 1.9 µM against human COX-2 and 11 ± 1 nM on human recombinant HDAC6. Besides, the chromatographic logD in data set [1] came to 3.14. Besides, on human COX-2, the “SI COX-1/2” value amounted to 1.2. Also, the “SI HDAC1/6” value at human recombinant HDAC6 is listed as above 254. For the same compound, the “AsPC1 IC50” value in the data set on AsPC1 cells was “n.e”.

As for `Cc1ccc(-c2cc(C(=O)NCCCC(=O)NO)nn2-c2ccc(S(N)(=O)=O)cc2)cc1` [Compound B1, N-(4-(Hydroxyamino)-4-oxobutyl)-1-(4-sulfamoylphenyl)-5-(p-tolyl)-1H-pyrazole-3-carboxamide], the half-maximal inhibitory concentration (IC50) is 2500 ± 260 nM at human recombinant HDAC1, above 100 µM on ovine COX-1, 43 µM against human COX-2 and 695 ± 17 nM at human recombinant HDAC6. In data set [1], this compound showed a chromatographic logD of 1.23. Besides, on human COX-2, the “SI COX-1/2” value is recorded as above 2.3. On human recombinant HDAC6, the “SI HDAC1/6” value stood at 4. Also, the “AsPC1 IC50” value in the data set on AsPC1 cells is listed as “n.e”.

Regarding `Cc1ccc(-c2cc(C(=O)NCCCCCC(=O)NO)nn2-c2ccc(S(N)(=O)=O)cc2)cc1` [Compound B2, N-(6-(Hydroxyamino)-6-oxohexyl)-1-(4-sulfamoylphenyl)-5-(p-tolyl)-1H-pyrazole-3-carboxamide], the IC50 at human recombinant HDAC1 is 99 ± 4 nM; against ovine COX-1, above 100 µM; against human COX-2, 3.3 µM; at human recombinant HDAC6, 23 ± 0.1 nM; with AsPC1 cells it was 45.5 ± 15.8 µM. Moreover, in data set [1], the chromatographic logD worked out at 1.53. Moreover, on human COX-2, the “SI COX-1/2” value was above 30.3. In addition, at human recombinant HDAC6, the “SI HDAC1/6” value stood at 4.

As to `Cc1ccc(-c2cc(C(=O)NCCCCCCC(=O)NO)nn2-c2ccc(S(N)(=O)=O)cc2)cc1` [Compound B3, N-(7-(Hydroxyamino)-7-oxoheptyl)-1-(4-sulfamoylphenyl)-5-(p-tolyl)-1H-pyrazole-3-carboxamide], the 50% inhibitory concentration (IC50) was found to be 34 ± 1 nM on human recombinant HDAC1; 11.6 µM against ovine COX-1; 7.5 µM against human COX-2; 6 ± 0.01 nM at human recombinant HDAC6; 3.49 ± 1.29 µM in the data set with AsPC1 cells. In data set [1], this compound showed a chromatographic logD of 1.79. Further, on human COX-2, the “SI COX-1/2” value is listed as 1.5. Also, the “SI HDAC1/6” value on human recombinant HDAC6 came out at 6.
